Measured values published in PubChem BioAssay AID1963443 (Molecular Pharmacology Branch, DTP, NCI, 2024).
Each block holds one compound with its values, some of them ahead of it.

Tested on: MDA-MB-231 complex spheroids, growth inhibition
Test: Anticancer human tumor MDA-MB-231 cell line growth inhibition [Asc];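 further: spheroids exposed to compounds for 7 days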
Details: for IC50: curve of first compound; for viability, T/C: stronger effect = lower value
Method in brief: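 Tumor cells were grown as complex spheroids with human endothelial cells (HUVEC) and human mesenchymal stem cells as stroma. Agents were tested alone and in combination, in half-log steps down from the clinical Cmax, or from 10 microM where Cmax was unknown.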

- IC50 (second compound 0.03 µM): > 10000 nM
- IC50 (second compound 0.0949 µM): > 10000 nM
- IC50 (second compound 0.3 µM): > 10000 nM
- IC50 (second compound 0.949 µM): > 10000 nM
- IC50 (second compound 3 µM): > 10000 nM
Structure (SMILES): C=CC(=O)N1CCN(c2nc(=O)n(-c3c(C)ccnc3C(C)C)c3nc(-c4c(O)cccc4F)c(F)cc23)C(C)C1 (configuration not stated) + CCN1C(C(=O)NC23CCC(C(=O)O)(CC2)CC3)C(c2cccc(Cl)c2F)C2(C(=O)Nc3cc(Cl)ccc32)C12CCCCC2
- viability, T/C (second compound 0.03 µM, first compound 0.0316 µM): 97.4%
- viability, T/C (second compound 0.03 µM, first compound 0.1 µM): 97.9%
- viability, T/C (second compound 0.03 µM, first compound 0.316 µM): 103%
- viability, T/C (second compound 0.03 µM, first compound 1 µM): 104%
- viability, T/C (second compound 0.03 µM, first compound 3.16 µM): 102%
- viability, T/C (second compound 0.03 µM, first compound 10 µM): 106%
- viability, T/C (second compound 0.0949 µM, first compound 0.0316 µM): 108%
- viability, T/C (second compound 0.0949 µM, first compound 0.1 µM): 107%
- viability, T/C (second compound 0.0949 µM, first compound 0.316 µM): 112%
- viability, T/C (second compound 0.0949 µM, first compound 1 µM): 109%
- viability, T/C (second compound 0.0949 µM, first compound 3.16 µM): 116%
- viability, T/C (second compound 0.0949 µM, first compound 10 µM): 120%
- viability, T/C (second compound 0.3 µM, first compound 0.0316 µM): 101%
- viability, T/C (second compound 0.3 µM, first compound 0.1 µM): 103%
- viability, T/C (second compound 0.3 µM, first compound 0.316 µM): 110%
- viability, T/C (second compound 0.3 µM, first compound 1 µM): 118%
- viability, T/C (second compound 0.3 µM, first compound 3.16 µM): 121%
- viability, T/C (second compound 0.3 µM, first compound 10 µM): 108%
- viability, T/C (second compound 0.949 µM, first compound 0.0316 µM): 113%
- viability, T/C (second compound 0.949 µM, first compound 0.1 µM): 113%
- viability, T/C (second compound 0.949 µM, first compound 0.316 µM): 120%
- viability, T/C (second compound 0.949 µM, first compound 1 µM): 118%
- viability, T/C (second compound 0.949 µM, first compound 3.16 µM): 129%
- viability, T/C (second compound 0.949 µM, first compound 10 µM): 121%
- viability, T/C (second compound 3 µM, first compound 0.0316 µM): 96%
- viability, T/C (second compound 3 µM, first compound 0.1 µM): 107%
- viability, T/C (second compound 3 µM, first compound 0.316 µM): 109%
- viability, T/C (second compound 3 µM, first compound 1 µM): 114%
- viability, T/C (second compound 3 µM, first compound 3.16 µM): 115%
- viability, T/C (second compound 3 µM, first compound 10 µM): 112%

- IC50 (second compound 0.00316 µM): < 31.6 nM
- IC50 (second compound 0.01 µM): < 31.6 nM
- IC50 (second compound 0.0316 µM): < 31.6 nM
- IC50 (second compound 0.1 µM): < 31.6 nM
- IC50 (second compound 0.316 µM): 3780 nM
- IC50 (second compound 1 µM): 2970 nM
Structure (SMILES): C#Cc1c(F)ccc2cc(O)cc(-c3ncc4c(N5CC6CCC(C5)N6)nc(OCC56CCCN5CC(F)C6)nc4c3F)c12 (configuration not stated) + CNC(C)C(=O)NC1CN(S(=O)(=O)c2cccc(S(=O)(=O)N3CCC4CCC(C(=O)NC(c5ccccc5)c5ccccc5)N4C(=O)C(NC(=O)C(C)NC)C3)c2)CCC2CCC(C(=O)NC(c3ccccc3)c3ccccc3)N2C1=O
- viability, T/C (second compound 0.00316 µM, first compound 0.0316 µM): 4.06%
- viability, T/C (second compound 0.00316 µM, first compound 0.1 µM): 5.16%
- viability, T/C (second compound 0.00316 µM, first compound 0.316 µM): 5.29%
- viability, T/C (second compound 0.00316 µM, first compound 1 µM): 3.82%
- viability, T/C (second compound 0.00316 µM, first compound 3.16 µM): 2.11%
- viability, T/C (second compound 0.00316 µM, first compound 10 µM): 1.85%
- viability, T/C (second compound 0.01 µM, first compound 0.0316 µM): 1.96%
- viability, T/C (second compound 0.01 µM, first compound 0.1 µM): 2.54%
- viability, T/C (second compound 0.01 µM, first compound 0.316 µM): 2.18%
- viability, T/C (second compound 0.01 µM, first compound 1 µM): 3.28%
- viability, T/C (second compound 0.01 µM, first compound 3.16 µM): 2.31%
- viability, T/C (second compound 0.01 µM, first compound 10 µM): 1.91%
- viability, T/C (second compound 0.0316 µM, first compound 0.0316 µM): 1.62%
- viability, T/C (second compound 0.0316 µM, first compound 0.1 µM): 2.61%
- viability, T/C (second compound 0.0316 µM, first compound 0.316 µM): 2.63%
- viability, T/C (second compound 0.0316 µM, first compound 1 µM): 1.93%
- viability, T/C (second compound 0.0316 µM, first compound 3.16 µM): 2.58%
- viability, T/C (second compound 0.0316 µM, first compound 10 µM): 1.22%
- viability, T/C (second compound 0.1 µM, first compound 0.0316 µM): 1.38%
- viability, T/C (second compound 0.1 µM, first compound 0.1 µM): 1.67%
- viability, T/C (second compound 0.1 µM, first compound 0.316 µM): 1.43%
- viability, T/C (second compound 0.1 µM, first compound 1 µM): 1.74%
- viability, T/C (second compound 0.1 µM, first compound 3.16 µM): 1.84%
- viability, T/C (second compound 0.1 µM, first compound 10 µM): 2.09%
- viability, T/C (second compound 0.316 µM, first compound 0.0316 µM): 112%
- viability, T/C (second compound 0.316 µM, first compound 0.1 µM): 94.9%
- viability, T/C (second compound 0.316 µM, first compound 0.316 µM): 96%
- viability, T/C (second compound 0.316 µM, first compound 1 µM): 73%
- viability, T/C (second compound 0.316 µM, first compound 3.16 µM): 51.6%
- viability, T/C (second compound 0.316 µM, first compound 10 µM): 34.9%
- viability, T/C (second compound 1 µM, first compound 0.0316 µM): 99.6%
- viability, T/C (second compound 1 µM, first compound 0.1 µM): 110%
- viability, T/C (second compound 1 µM, first compound 0.316 µM): 97.2%
- viability, T/C (second compound 1 µM, first compound 1 µM): 68.8%
- viability, T/C (second compound 1 µM, first compound 3.16 µM): 53.4%
- viability, T/C (second compound 1 µM, first compound 10 µM): 38.7%

- IC50 (second compound 0.1 µM): 201 nM
- IC50 (second compound 0.316 µM): 249 nM
- IC50 (second compound 1 µM): 179 nM
- IC50 (second compound 3.16 µM): 162 nM
- IC50 (second compound 10 µM): 162 nM
Structure (SMILES): Cc1nc(N2CCC3(CC2)COC(C)C3N)c(CO)nc1Sc1ccnc(N)c1Cl (configuration not stated) + Cc1c(S(C)(=O)=O)c(-c2cc(F)cc(N3CCN(c4ccc(NS(=O)(=O)c5ccc(NC(CCN6CCC(C(=O)OCCCP(=O)(O)O)CC6)CSc6ccccc6)c(S(=O)(=O)C(F)(F)F)c5)cc4)CC3)c2)c(-c2ccc(Cl)cc2)n1C(C)C
- viability, T/C (second compound 0.1 µM, first compound 0.00949 µM): 97.2%
- viability, T/C (second compound 0.1 µM, first compound 0.03 µM): 90.9%
- viability, T/C (second compound 0.1 µM, first compound 0.0949 µM): 76.8%
- viability, T/C (second compound 0.1 µM, first compound 0.3 µM): 37%
- viability, T/C (second compound 0.1 µM, first compound 0.949 µM): 1.43%
- viability, T/C (second compound 0.1 µM, first compound 3 µM): 0.95%
- viability, T/C (second compound 0.316 µM, first compound 0.00949 µM): 108%
- viability, T/C (second compound 0.316 µM, first compound 0.03 µM): 99.8%
- viability, T/C (second compound 0.316 µM, first compound 0.0949 µM): 88.9%
- viability, T/C (second compound 0.316 µM, first compound 0.3 µM): 44.1%
- viability, T/C (second compound 0.316 µM, first compound 0.949 µM): 1.42%
- viability, T/C (second compound 0.316 µM, first compound 3 µM): 1.39%
- viability, T/C (second compound 1 µM, first compound 0.00949 µM): 102%
- viability, T/C (second compound 1 µM, first compound 0.03 µM): 94%
- viability, T/C (second compound 1 µM, first compound 0.0949 µM): 81.6%
- viability, T/C (second compound 1 µM, first compound 0.3 µM): 24.7%
- viability, T/C (second compound 1 µM, first compound 0.949 µM): 0.73%
- viability, T/C (second compound 1 µM, first compound 3 µM): 1.11%
- viability, T/C (second compound 3.16 µM, first compound 0.00949 µM): 95.6%
- viability, T/C (second compound 3.16 µM, first compound 0.03 µM): 93.4%
- viability, T/C (second compound 3.16 µM, first compound 0.0949 µM): 78.7%
- viability, T/C (second compound 3.16 µM, first compound 0.3 µM): 17%
- viability, T/C (second compound 3.16 µM, first compound 0.949 µM): 1.15%
- viability, T/C (second compound 3.16 µM, first compound 3 µM): 0.34%
- viability, T/C (second compound 10 µM, first compound 0.00949 µM): 106%
- viability, T/C (second compound 10 µM, first compound 0.03 µM): 103%
- viability, T/C (second compound 10 µM, first compound 0.0949 µM): 82%
- viability, T/C (second compound 10 µM, first compound 0.3 µM): 12.9%
- viability, T/C (second compound 10 µM, first compound 0.949 µM): 0.64%
- viability, T/C (second compound 10 µM, first compound 3 µM): 0.34%
